Test results published in PMC12627232 (MedComm, 2025).

Assays:
HDAC9 = biological target: T1, HDAC9 (Homo sapiens, UniProt Q9UKV0); experiment: HDACs enzymatic assay HDAC9; type: biochemical; conditions: Class IIa
T1 construct: purchased BPS BIOSCIENCE Inc 50009
Procedure: (§1) HDACs enzymatic assays were conducted according to our previous work. […] Substrates (Boc‐Lys(acetyl)‐AMC for HeLa nuclear extract, Ac‐Leu‐Gly‐Lys (Tfa)‐AMC for HDAC4, HDAC5, HDAC6, HDAC7, HDAC9, HDAC10, and HDAC11, Boc‐Lys(triflouroacetyl)‐AMC for HDAC8 and Ac‐Leu‐Gly‐Lys(acetyl)‐AMC for HDAC1, HDAC2, HDAC3) were added to the mixture. The blank group was set to no enzyme or drug but contains substrates and the control group was set to no drug but contains substrates and enzymes to each 96‐well plate. After 30 min of incubation at 37°C, the mixture was terminated with 1 mg/mL trypsin and 3 µM TSA. After another 30 min, the fluorescence intensity was measured using a Varioskan plate reader at 360/460 nm. […] The inhibition curves and IC50 values were simulated and calculated using the log(inhibitor) versus response (three parameters) mode in GraphPad Prism software.

HDAC5 = biological target: T2, HDAC5 (Homo sapiens, UniProt Q9UQL6); experiment: HDACs enzymatic assay HDAC5; type: biochemical; conditions: Class IIa
T2 construct: purchased BPS BIOSCIENCE Inc 50005
Procedure: as §1

HDAC10 = biological target: T3, HDAC10 (Homo sapiens, UniProt Q969S8); experiment: HDACs enzymatic assay HDAC10; type: biochemical; conditions: Class IIb
T3 construct: purchased BPS BIOSCIENCE Inc 50010
Procedure: as §1

MDA-MB-231 cells = experiment: Western blotting (immunoblotting); type: cell-based, human; conditions: 24 h
Source text: Anti‐H3 (#13998), anticleaved Caspase‐3 (#9661) and anti‐PARP (#9542) antibody was purchased from Cell Signal Technology (CST). Anti‐Caspase‐3 (T40044) was brought from Abmart. Antitubulin antibody (ab179484) was obtained from Abcam PLC. Anti‐Bcl‐2 (F0125) and anti‐Bax (F0037) antibody were purchased from Selleck Chemicals. Anti‐GAPDH antibody (AF1186) was obtained from Beyotime Inc. The protocol of Western blotting was the same as our previous works. In brief, 2.5 × 10^5 MDA‐MB‐231 cells were treated with different drugs or DMSO (equal volume to experimental groups) for 24 h and lysed with modified RIPA buffer. The cell lysates were added to loading buffer (Beyotime #P0015L) and heated in boiling water for 5 mins and then, together with biomarker (Epizymebiotech; 15–250 kDa), were electrophoresed in SDS‐PAGE gels under 80 V voltage until the biomarker reached the end of gels. Next, SDS‐PAGE gels and PVDF membrane were clipped together to perform transmembrane procedure under 350 mA currency for 1 h. Then after incubation with 5% skim milk, TBST, primary antibody and secondary antibody, the PVDF membrane was treated with ECL chemiluminescence solution (Boster Biological Technology #AR1174) and imaged by the imager (Imager 680 Amersham Imager).

HDAC1 = biological target: T4, HDAC1 (Homo sapiens, UniProt Q13547); experiment: HDACs enzymatic assay HDAC1; type: biochemical
T4 construct: purchased BPS BIOSCIENCE INC 50051
Procedure: as §1

HDAC3/NCOR1 complex = HDAC3/NCOR1 complex (Homo sapiens, UniProt O15379); experiment: HDACs enzymatic assay HDAC3; type: biochemical; conditions: Class I; mean ± SD of three
Procedure: as §1

MDA-MB-231 xenograft = MDA-MB-231 xenograft model; type: in vivo, BALB/c-nu mice
Procedure: BALB/c‐nu mice were obtained from Pengyue Co. Ltd. (Jinan, China) and were fed in laminar flow cabinets under specific pathogen‐free (SPF) conditions. With the approval of ethics committee of Shandong University, the animal experiments were conducted. To establish the MDA‐MB‐231 xenograft model, BALB/c‐nu mice (3–4 weeks old and 15–18 g body weight, male) were selected and injected subcutaneously into the armpits with 1.2 × 10^7 MDA‐MB‐231 cells. […] Body weight and tumor size were measured every 3 days during the 22‐day treatment.

HDAC4 = biological target: T5, HDAC4 (Homo sapiens, UniProt P56524); experiment: HDACs enzymatic assay HDAC4; type: biochemical; conditions: Class IIa
T5 construct: purchased BPS BIOSCIENCE Inc 50004
Procedure: as §1

[1] = system: immune cells of MC38 syngeneic model; experiment: Flow cytometry of tumor-infiltrating and spleen immune cells, MC38 model; type: in vivo, C57BL/6J mice
Procedure: After 14 days, the tumors and spleens were split, and cells were isolated to analyze the change in cancer immunity. For TILs, the tumors were incubated with the tumor digestion fluid (collagenase and hyaluronic acid included) and then filtered with a 200‐gauge mesh and centrifuged (100×g, 1 min). The supernatant was centrifuged (400×g, 5 min) and precipitated cells were purified by 40% percoll solution followed by RBC lysis and washing. For splenocytes, the spleen was passed through a 200‐gauge mesh, and splenocytes were collected after RBC lysis and washing.
The prepared cell suspensions were incubated with rat serum at room temperature for 30 min to block the FC‐receptor and incubated with fluorescent antibodies at 4°C for 1 h. For Foxp3 staining, Foxp3/Transcription Factor Staining Buffer Set (eBioscience; #00‐5523‐00) was used. For intracellular cytokines staining, cells were pre‐stimulated with 1 µg/mL ionomycin (Beyotime; #S1672), 50 ng/mL PMA (Sigma; #P1585) and Brefeldin A (BioLegend; #420601) for 4 h. Flow cytometry was conducted with FACS Celesta (BD Biosciences, USA) and analyzed with FlowJo software.

HDAC6 = biological target: T6, HDAC6 (Homo sapiens, UniProt Q9UBN7); experiment: HDACs enzymatic assay HDAC6; type: biochemical; conditions: Class IIb
T6 construct: purchased BPS BIOSCIENCE Inc 50006
Procedure: as §1

HDAC2 = biological target: T7, HDAC2 (Homo sapiens, UniProt Q92769); experiment: HDACs enzymatic assay HDAC2; type: biochemical; conditions: Class I; mean ± SD of three
T7 construct: purchased BPS BIOSCIENCE Inc 50052
Procedure: as §1

MDA-MB-231 = experiment: CCK-8 antiproliferation assay; type: cell-based, human
Procedure: Cell lines purchased from the Cell Bank of Type Culture Collection of the Chinese Academy of Sciences (Shanghai, China) were passaged after resuscitation. […] The third to tenth passages of cells were used for experiments. […] After incubation, 20 µL CCK‐8 solution (MeilunBio) was added. Two hours later, absorption was measured by a Varioskan plate at 450 nm. Inhibition curves and IC50 values were simulated and calculated using the log(inhibitor) versus response (three parameters) mode via GraphPad Prism software.

T4 sequence (Q13547 whole entry): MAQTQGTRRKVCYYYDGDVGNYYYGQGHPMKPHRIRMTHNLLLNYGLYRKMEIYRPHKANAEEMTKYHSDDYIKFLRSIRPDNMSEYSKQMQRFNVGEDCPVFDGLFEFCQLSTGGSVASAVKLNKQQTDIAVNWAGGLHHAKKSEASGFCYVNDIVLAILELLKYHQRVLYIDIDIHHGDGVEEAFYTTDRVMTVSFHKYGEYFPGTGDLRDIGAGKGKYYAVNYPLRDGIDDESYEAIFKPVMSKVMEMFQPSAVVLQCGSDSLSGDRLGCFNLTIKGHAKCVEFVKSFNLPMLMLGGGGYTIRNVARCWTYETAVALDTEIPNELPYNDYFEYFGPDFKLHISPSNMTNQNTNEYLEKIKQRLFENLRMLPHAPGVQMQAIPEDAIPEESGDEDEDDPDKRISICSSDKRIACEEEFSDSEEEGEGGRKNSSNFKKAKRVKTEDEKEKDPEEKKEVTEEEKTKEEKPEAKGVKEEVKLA
T2 sequence (Q9UQL6 whole entry): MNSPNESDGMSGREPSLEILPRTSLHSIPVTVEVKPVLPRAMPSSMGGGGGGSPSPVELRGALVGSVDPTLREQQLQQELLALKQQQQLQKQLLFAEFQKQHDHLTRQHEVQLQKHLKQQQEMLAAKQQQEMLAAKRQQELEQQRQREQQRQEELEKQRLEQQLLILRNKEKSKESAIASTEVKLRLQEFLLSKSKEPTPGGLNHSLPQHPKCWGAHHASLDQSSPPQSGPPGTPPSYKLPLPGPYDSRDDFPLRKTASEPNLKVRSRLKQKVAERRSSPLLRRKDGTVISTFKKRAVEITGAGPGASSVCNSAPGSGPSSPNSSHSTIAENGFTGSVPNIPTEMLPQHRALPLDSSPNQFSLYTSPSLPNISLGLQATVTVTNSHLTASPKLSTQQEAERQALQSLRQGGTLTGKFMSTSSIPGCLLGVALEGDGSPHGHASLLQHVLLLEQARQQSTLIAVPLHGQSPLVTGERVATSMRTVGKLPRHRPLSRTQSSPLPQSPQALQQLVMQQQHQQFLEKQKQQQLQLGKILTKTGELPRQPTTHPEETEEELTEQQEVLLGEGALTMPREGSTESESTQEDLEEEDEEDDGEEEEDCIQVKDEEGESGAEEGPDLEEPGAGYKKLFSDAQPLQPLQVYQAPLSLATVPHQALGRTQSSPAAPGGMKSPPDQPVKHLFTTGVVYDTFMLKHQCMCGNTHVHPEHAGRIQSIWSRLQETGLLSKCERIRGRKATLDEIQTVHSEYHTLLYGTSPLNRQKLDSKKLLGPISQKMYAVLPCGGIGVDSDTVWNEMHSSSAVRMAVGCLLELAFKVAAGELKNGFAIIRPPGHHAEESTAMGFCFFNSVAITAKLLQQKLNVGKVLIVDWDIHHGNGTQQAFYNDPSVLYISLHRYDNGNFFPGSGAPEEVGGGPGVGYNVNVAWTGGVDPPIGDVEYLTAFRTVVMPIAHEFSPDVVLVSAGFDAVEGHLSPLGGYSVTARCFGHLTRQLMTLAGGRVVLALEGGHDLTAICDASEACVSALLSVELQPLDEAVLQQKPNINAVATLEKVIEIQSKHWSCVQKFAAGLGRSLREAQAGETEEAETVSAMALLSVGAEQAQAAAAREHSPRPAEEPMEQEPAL
T3 sequence (Q969S8 whole entry): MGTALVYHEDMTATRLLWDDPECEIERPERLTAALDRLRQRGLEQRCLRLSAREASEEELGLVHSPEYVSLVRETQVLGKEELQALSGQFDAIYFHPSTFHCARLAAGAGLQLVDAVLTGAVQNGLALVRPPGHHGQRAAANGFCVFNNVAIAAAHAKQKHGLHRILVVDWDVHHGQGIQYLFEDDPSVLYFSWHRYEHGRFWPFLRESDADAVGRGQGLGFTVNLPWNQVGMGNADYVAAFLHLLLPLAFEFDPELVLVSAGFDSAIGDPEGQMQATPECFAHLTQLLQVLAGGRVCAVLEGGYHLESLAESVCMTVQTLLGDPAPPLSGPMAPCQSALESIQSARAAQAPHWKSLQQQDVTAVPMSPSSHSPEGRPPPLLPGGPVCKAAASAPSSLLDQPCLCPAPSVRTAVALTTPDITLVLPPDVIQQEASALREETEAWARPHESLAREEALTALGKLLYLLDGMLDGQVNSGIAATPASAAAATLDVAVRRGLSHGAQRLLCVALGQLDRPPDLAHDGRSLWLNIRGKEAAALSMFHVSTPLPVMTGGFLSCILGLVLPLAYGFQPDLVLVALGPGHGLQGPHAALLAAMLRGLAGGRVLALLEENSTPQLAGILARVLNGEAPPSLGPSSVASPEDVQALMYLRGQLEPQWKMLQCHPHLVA
Chain of HDAC3/NCOR1 complex (O15379 whole entry): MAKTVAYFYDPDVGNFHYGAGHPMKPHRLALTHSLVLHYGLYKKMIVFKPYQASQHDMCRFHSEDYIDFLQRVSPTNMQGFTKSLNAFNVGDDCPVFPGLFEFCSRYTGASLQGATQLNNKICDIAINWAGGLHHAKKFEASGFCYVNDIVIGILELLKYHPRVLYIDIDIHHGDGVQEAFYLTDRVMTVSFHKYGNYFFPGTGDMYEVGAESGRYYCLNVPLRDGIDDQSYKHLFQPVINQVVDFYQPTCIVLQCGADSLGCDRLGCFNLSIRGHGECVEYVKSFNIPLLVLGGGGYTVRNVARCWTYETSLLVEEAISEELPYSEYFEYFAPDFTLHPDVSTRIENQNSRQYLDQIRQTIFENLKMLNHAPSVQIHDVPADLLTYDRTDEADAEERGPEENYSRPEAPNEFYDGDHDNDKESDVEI
Chain of HDAC3/NCOR1 complex (Q9Y618 395-489 partner): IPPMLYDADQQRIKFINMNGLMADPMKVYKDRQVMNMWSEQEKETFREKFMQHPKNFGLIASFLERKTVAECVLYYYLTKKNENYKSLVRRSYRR
T7 sequence (Q92769 whole entry): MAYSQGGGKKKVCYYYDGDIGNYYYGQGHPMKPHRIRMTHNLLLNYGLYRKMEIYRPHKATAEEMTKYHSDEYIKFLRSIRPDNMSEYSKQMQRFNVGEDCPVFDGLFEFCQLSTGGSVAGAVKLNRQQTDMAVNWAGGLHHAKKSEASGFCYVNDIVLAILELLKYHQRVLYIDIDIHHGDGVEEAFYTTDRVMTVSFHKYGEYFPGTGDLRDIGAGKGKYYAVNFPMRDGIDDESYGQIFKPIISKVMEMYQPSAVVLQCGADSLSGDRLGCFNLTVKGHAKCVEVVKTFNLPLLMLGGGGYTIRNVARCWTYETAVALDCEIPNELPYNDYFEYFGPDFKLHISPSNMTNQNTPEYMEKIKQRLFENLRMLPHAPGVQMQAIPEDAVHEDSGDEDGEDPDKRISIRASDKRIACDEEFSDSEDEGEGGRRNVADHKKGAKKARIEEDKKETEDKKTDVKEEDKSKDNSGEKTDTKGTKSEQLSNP
T6 sequence (Q9UBN7 whole entry): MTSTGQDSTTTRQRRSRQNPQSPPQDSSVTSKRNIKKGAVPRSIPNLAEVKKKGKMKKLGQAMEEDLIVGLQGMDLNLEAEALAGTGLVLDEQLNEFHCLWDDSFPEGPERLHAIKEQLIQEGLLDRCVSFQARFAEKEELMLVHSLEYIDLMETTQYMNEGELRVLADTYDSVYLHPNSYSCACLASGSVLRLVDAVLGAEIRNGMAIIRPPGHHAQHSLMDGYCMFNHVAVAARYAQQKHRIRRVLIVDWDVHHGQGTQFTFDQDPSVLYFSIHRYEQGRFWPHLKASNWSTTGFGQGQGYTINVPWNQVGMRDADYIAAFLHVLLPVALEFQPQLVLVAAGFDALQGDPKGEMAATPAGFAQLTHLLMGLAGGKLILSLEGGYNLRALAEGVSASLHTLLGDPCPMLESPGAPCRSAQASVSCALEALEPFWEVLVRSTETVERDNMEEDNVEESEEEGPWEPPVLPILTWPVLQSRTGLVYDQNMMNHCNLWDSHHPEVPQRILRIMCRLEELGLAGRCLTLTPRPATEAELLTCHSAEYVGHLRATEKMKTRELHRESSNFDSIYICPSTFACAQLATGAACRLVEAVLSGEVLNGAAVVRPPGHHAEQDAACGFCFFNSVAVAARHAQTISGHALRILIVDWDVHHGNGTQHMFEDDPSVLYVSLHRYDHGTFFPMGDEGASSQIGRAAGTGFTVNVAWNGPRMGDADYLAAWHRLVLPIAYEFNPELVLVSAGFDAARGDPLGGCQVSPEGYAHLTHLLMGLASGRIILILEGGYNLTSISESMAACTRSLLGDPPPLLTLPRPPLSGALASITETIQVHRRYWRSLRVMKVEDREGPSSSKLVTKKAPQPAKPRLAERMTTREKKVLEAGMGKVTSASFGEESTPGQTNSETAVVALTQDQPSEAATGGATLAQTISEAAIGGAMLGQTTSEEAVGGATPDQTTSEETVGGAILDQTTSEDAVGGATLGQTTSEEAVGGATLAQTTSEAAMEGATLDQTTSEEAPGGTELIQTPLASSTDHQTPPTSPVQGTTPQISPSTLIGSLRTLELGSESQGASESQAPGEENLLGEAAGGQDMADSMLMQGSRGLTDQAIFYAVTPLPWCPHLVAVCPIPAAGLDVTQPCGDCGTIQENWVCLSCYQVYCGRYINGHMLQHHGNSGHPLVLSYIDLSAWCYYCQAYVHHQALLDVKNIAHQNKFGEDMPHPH

## O=C(CCCCCCNC(=O)c1cc(OCCc2ccccc2)c2ccccc2n1)NO [SDFZ-8]
HDAC9
  IC50: > 10000 nM
HDAC5
  IC50: > 10000 nM
HDAC10
  IC50: > 10000 nM
MDA-MB-231 cells
  antiapoptotic protein Bcl-2 expression: downregulating
  levels of cleaved caspase-3 and cleaved PARP: increase
  proapoptotic protein Bax expression: upregulated
MDA-MB-231 cells; western blotting
  level of acetylated histone H3 (Ac-H3): upregulation
  level of acetylated tubulin (Ac-tubulin): upregulation
HDAC1; Class I, mean ± SD of three
  IC50: 0.4 ± 0.1 nM
HDAC1; versus SAHA
  HDAC1 potency superior to SAHA: 92 fold
HDAC3/NCOR1 complex
  IC50: 300 ± 100 nM
MDA-MB-231 xenograft; MDA-MB-231 xenograft BALB/c-nu mice, 60 mg/kg/day
  general health of the mice: without adversely affecting the general health of the mice
MDA-MB-231 xenograft; MDA-MB-231 xenograft, BALB/c-nu mice, 60 mg/kg/day oral gavage, 22 days
  TGI: 76%
HDAC4
  IC50: > 10000 nM
[1]
  PD-1 expression in tumor-infiltrating CD4+ T cells and CD8+ T cells: did not affect
  PD-1 expression in tumor-infiltrating NK cells: downregulated
  PD-L1 expression in tumor-infiltrating immune cells (DCs and macrophages): upregulation
  surface expression of MHC class II in DCs and macrophages: significantly increased
[1]; CD4+ and CD8+ T cells
  tumor-infiltrating lymphocytes (TILs): more significant increase
[1]; CD206 marker
  M2 polarization of TAMs: suppressed
[1]; iNOS marker
  M1 polarization of TAMs: robustly promoted
[1]; spleen
  PD-L1 and PD-1 expression in various immune cells in the spleen: significantly decreased
  proportion of CD4+ T cells, CD8+ T cells and NK cells in the spleen: elevated
[1]; tumor
  expression of IFN-γ and TNF-α in CD4+ T cells and CD8+ T cells: upregulation
HDAC6
  IC50: 3.1 ± 0.5 nM
HDAC2
  IC50: 5.8 ± 1.5 nM
MDA-MB-231; Homo sapiens, MDA-MB-231, 48 h treatment, CCK-8
  IC50: 470 ± 80 nM
MDA-MB-231; MDA-MB-231 cells, versus SAHA
  antiproliferation activity better than SAHA: threefold
